According to US10308649B2, “Compounds and methods to suppress autoimmune response” (Oregon State University, priority 2014, dated 2019):

How the values were obtained:
AhR [1] = experiment: XRE-luciferase reporter gene in Hepa-1 cells expressing endogenous AhR; assay type: cell-based, mouse; details: for XRE-luciferase reporter activity, in words: 16 hours after treating; for fold activation of AhR (reporter gene activity): 10 nM, 12 hours
Description: FIGS. 9a-9f illustrate activity studies for 10-Cl-BBQ, 11-Cl-BBQ, and combinations thereof. Hepa-1 cells expressing endogenous AhR were transfected with a xenobiotic responsive element (XRE)-luciferase reporter gene. […] The activity was measured 16 hours after treating the cells with the various concentrations.
The reporter gene activity was measured after 12 hours of treatment with TCDD at a concentration of 1 nM or with the indicated concentrations of AHRL1.
Hepa-1 cells expressing endogenous AhR were transfected with a XRE-luciferase reporter gene. […] The mean luciferase activity is shown with SEM.

[2] = Serum pharmacokinetics after i.p. injection; details: mouse
Description: FIGS. 13a and 13b show the pharmacokinetics of AHRL1. To determine the half-life of AHRL1, mice were treated with a single intraperitoneal injection of the chemical, and serum concentrations were measured over time by mass spectrometry. In FIG. 13a, C57BL/6 mice were given 10 mg/kg AHRL1 by i.p. injection. Blood was collected at the indicated times by cardiac puncture. The blood serum was processed to remove protein and the samples were analyzed by QTRAP 4000 LC/MS/MS. The blood serum concentration of AHRL1 was determined from a standard curve based on known concentrations of AHRL1.
Based on the model, the serum half-life of AHRL1 is approximately 2 hours. Additional kinetic parameters include the absorption rate constant (ka) which was 1.2 h^−1. […] The area under the concentration-time curve (AUC0-∞) was 102.5 mg/L*h.

AhR [3] = biological target: T1, AhR (Mus musculus, UniProt P30561); experiment: Competitive inhibition of [3H] 3-MC binding to AhR; details: for fold lower / less active than TCDD: relative to IC50 of TCDD
T1 sequence (P30561 10-848): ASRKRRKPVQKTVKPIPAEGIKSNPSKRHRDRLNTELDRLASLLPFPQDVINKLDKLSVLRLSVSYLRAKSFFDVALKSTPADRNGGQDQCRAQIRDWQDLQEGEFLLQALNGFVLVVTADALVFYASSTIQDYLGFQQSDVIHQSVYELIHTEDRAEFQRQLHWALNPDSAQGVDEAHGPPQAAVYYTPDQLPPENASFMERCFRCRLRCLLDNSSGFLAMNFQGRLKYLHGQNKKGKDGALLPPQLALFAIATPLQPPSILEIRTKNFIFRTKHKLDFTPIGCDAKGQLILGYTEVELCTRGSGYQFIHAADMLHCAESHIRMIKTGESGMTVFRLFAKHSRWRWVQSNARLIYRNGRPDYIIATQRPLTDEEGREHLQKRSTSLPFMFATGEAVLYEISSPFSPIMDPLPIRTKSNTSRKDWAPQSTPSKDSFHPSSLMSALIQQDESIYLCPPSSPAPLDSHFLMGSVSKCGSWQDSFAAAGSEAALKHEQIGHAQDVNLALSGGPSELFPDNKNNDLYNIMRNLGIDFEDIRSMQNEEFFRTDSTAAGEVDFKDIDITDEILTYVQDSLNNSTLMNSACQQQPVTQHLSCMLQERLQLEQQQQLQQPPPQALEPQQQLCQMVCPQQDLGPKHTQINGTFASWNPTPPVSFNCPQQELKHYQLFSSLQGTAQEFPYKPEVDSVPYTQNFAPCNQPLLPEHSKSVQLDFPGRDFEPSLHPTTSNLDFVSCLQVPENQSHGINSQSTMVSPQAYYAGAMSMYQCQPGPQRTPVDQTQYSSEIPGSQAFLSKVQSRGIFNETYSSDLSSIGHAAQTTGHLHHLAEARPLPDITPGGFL
Excerpt: 3-MC binding to AhR. […] 3-methylcholanthrene (3-MC) to AhR.

donor CD4+ T cells = experiment: Acute graft versus host model: Treg phenotype of alloactivated donor CD4+ T cells; assay type: in vivo, mouse; details: 10 mg/kg day 0 and day 1, day 2, p-value=0.05
Description: FIGS. 14a-14i show AHRL1 induces an AhR-dependent Treg phenotype by a mechanism that is mediated by the AhR in donor CD4+ T cells. The AhR-induced Tregs were identified as the CD4+CD25+CTLA-4+CD62L^low population of T cells. To determine if AHRL1 induced changes in donor CD4+ T cells, AHRL1 was compared with TCDD and the vehicle. On day 0, B6D2F1 host mice in groups of 5 were injected with CFSE-labeled C57BL/6 (H-2^b/b) T cells and given 15 mg/kg of AHRL1, 15 μg/kg of TCDD, or vehicle by i.p. injection. At 24 hours, an additional dose of 7 mg/kg of AHRL1 or vehicle was given. Mice that were treated with TCDD at the time of donor cell transfer were used as positive controls. Splenocytes were isolated on day 2 for phenotypic analysis of the alloresponsive (CFSE-diluted) donor CD4+ T cells. Splenocytes were harvested from the host mice and the CD4+ T cells were identified by flow cytometry.
On day 0, B6D2F1 host mice in groups of 5 were injected with donor T cells obtained from AhR^+/+ or AhR-deficient (AhR^−/−) C57BL/6 mice. Host mice were treated with 2 mg/kg of AHRL1 or vehicle immediately following donor cell transfer and again at 24 hours. […] Thus, the AhR in the CD4+ T cell is the primary target driving the AhR-Treg phenotype.
On day 0, B6D2F1 host mice in groups of 3-5 were injected with C57BL/6 T cells. Mice were immediately treated with 0 mg/kg, 0.4 mg/kg, 2 mg/kg, or 10 mg/kg of AHRL1 and again on day 1. On day 2, expression of markers associated with the AhR-Treg phenotype increased as the dose of AHRL1 increased. Further, dosing generally correlated with degree of activation of AhR as reflected by CYP1A1, CYP1B1, and AHRR expression in lymph nodes from the same mice. The asterisk (*) indicates a p-value of 0.05 relative to vehicle treatment.
FIGS. 16c and 16d show expression of phenotypic markers, CD25+ICOS+CD62L^low and CD25+CTLA-4+, associated with AhR-Tregs in mice treated with AHRL1. Host mice were treated with 10 mg/kg of AHRL1, 11-Cl-BBQ analog, or vehicle on day 0 and day 1 following donor cell transfer. On day 2, the alloactivated CD4+ donor T cells were identified based on CFSE dilution. The percentage of donor cells in each group expressing the Treg markers were derived from flow histograms. The data represents mean±SEM of 5 mice per treatment. […] Analog 1 is statistically different from AHRL1 and analog 4 (p-value=0.05). […], analog 1, and analog 4 are shown to be AhR ligands that are capable of inducing Tregs in vivo. Accordingly, analogs 1 and 4 are expected to have a similar therapeutic effect in a subject as AHRL1 by suppressing an autoimmune response. Additionally, analog 6, analog 7, and other analogs of 11-Cl-BBQ, that are found to be active AhR ligands using the disclosed screening method, are expected to induce Tregs and suppress CTL to provide treatment and/or prevention of immune-mediated diseases.

| SMILES | XRE-luciferase reporter activity, in words (AhR [1]) | in vivo serum half-life [2] | fold activation of AhR (reporter gene activity) (AhR [1]) | IC50 (AhR [3]) | fold lower / less active than TCDD (AhR [3]) | IC50, competitive inhibition of [3H] 3-MC binding to AhR (AhR [3]) | expression of CD25+CTLA-4+ on alloactivated CD4+ donor T cells (donor CD4+ T cells) | expression of CD25+ICOS+CD62Llow on alloactivated CD4+ donor T cells (donor CD4+ T cells) |
| --- | --- | --- | --- | --- | --- | --- | --- | --- |
| O=c1c2cccc3cccc(c32)c2nc3ccc(Cl)cc3n12 [10-Cl-BBQ, 10-chloro-7H-benzimidazo[2,1-a]benzo[de]Iso-quinolin-7-one] | activate AhR | approximately two | – | – | – | – | – | – |
| O=c1c2ccc3ccc4cccc5cc(c2c3c45)c2nc3ccc(Cl)cc3n12 [analog 3, 11-Chloro-8H-benzimidazo[2,1-a]phenanthro[3,4,5-defg]isoquinolin-8-one] | – | – | 2 fold | 77.3 nM | 10 fold | – | – | – |
| NN1C(=O)c2ccc3c(=O)n4c5ccc(Cl)cc5nc4c4ccc(c2c34)C1=O [analog 2, 2-Amino-10-chlorobenzimidazo[2,1-b]benzo[lmn][3,8]phenanthroline-1,3,6(2H)-trione] | – | – | did not induce reporter activity | – | – | inactive | – | – |
| O=C(O)c1ccc2c3c1cccc3c(=O)n1c3ccccc3nc21 [analog 5, 7-Oxo-7H-benzimidazo[2,1-a]benzo[de]isoquinoline-3-carboxylic acid] | – | – | did not induce reporter activity | 45200 nM | 1000 fold | – | – | – |
| O=c1c2cccc3cccc(c32)c2nc3cc(Cl)ccc3n12 [11-Cl-BBQ, 11-chloro-7H-benzimidazo[2,1-a]benzo[de]Iso-quinolin-7-one] | increased AhR reporter activity as compared to 10-Cl-BBQ alone | approximately two | – | – | – | – | – | – |
| O=c1c2cccc3cccc(c32)c2nc3ccccc3n12 [analog 1, 7H-Benzimidazo[2,1-a]benzo[de]isoquinolin-7-one] | – | – | 13 fold | 13.7 nM | – | – | statistically different from vehicle | statistically different from vehicle |
| O=c1c2ccc(Cl)c3cccc(c32)c2nc3cc(Cl)ccc3n12 [analog 4, 4,11-Dichloro-7H-benzimidazo[2,1-a]benzo[de]isoquinolin-7-one] | – | – | 19 fold | 5.2 nM | – | – | statistically different from vehicle | statistically different from vehicle |
